The source of these data is PubChem BioAssay (NCI).

Common to all, as to assay: NCI anticancer screen, dose series, 48 h
In assay [1] the test system is U251 CNS.
Assay [2] has as its system SNB-75 CNS.
For assay [3], the system named is MDA-N.
For assay [4], the system named is SK-MEL-5 melanoma.
The subject of assay [5] is SF-539 CNS.
For assay [6], the system named is LOX IMVI melanoma.
Assay [7] concerns UO-31 renal.
Assay [8] concerns A498 renal.
Assay [9] has as its system UACC-257 melanoma.
Assay [10] relates to HCC-2998 colon.

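In this assay, cells in 96-well plates receive the compound at five concentrations for 48 hours. Endpoints are linearly interpolated between the surrounding concentrations. At the TGI there is no net growth.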

With `Cc1n[nH]c(=O)c2cc(-c3ccccc3)[nH]c12`, the TGI in assay [1], in [2], in [3], in assay [4], in assay [5] and in assay [6] was more than 100 µM throughout. The TGI was more than 100 µM in assay [7], 92.3 µM in assay [8], more than 100 µM in assay [9] and more than 100 µM in [10].
